pIC50: −log10 of the molar value. The source made the active and inactive calls. The rule behind the calls is not given here.
How the values were obtained:
Cholinesterase = Cholinesterase (Homo sapiens, UniProt P06276); assay: Inhibition of human BChE by spectrophotometric Ellman's method
Acetylcholinesterase = Acetylcholinesterase (Homo sapiens, UniProt P22303); assay: Inhibition of human AChE by spectrophotometric Ellman's method
[1] = Cytotoxicity against CHO-K1 cells incubated for 24 hrs by MTT assay; assay type: toxicity, cell-based, Cricetulus griseus; conditions: Chinese hamster
[2] = biological target: T1, Glutamate NMDA receptor; GRIN1/GRIN2B (Homo sapiens, UniProt Q05586+Q13224); assay: Inhibition of recombinant human GluN1/GluN2B receptor expressed in HEK293 cells assessed as reduction in glutamate induced current at 1 uM at -60 mV holding potential by electrophysiology assay relative to control; assay type: cell-based
Rattus norvegicus [3] = assay: Antialzheimer activity against scopolamine-induced cognitive impairment in Wistar rat assessed as increase in number of platform crossing at 2 mg/kg, ip measured upto 4 days by morris water maze test; assay type: functional, organism-based; conditions: time <= 4.0 day
Rattus norvegicus [4] = assay: Antialzheimer activity against scopolamine-induced cognitive impairment in Wistar rat assessed as decrease in mean distance from platform at 2 mg/kg, ip measured upto 4 days by morris water maze test (reference value: 51.7 +/-1.5 cm); assay type: functional; conditions: time <= 4 day
Rattus norvegicus [5] = assay: Antipsychotic activity in Wistar rat assessed as effect on locomotor activity at 0.2 mg/kg, ip measured after 10 mins by open field test; assay type: functional, organism-based
Rattus norvegicus [6] = assay: Antipsychotic activity in Wistar rat assessed as effect on pre-pulse inhibition of acoustic startle response at 0.3 mg/kg, ip measured after 10 mins by pre-pulse inhibition test; assay type: functional, organism-based
in vitro [7] = conditions: human, liver microsomes
Description: Metabolic stability in human liver microsomes assessed as half life at 3 uM measured upto 45 min in presence of NADPH regenerating system by LC-MS analysis

[8] = Inhibition of recombinant human GluN1 Y109C /GluN2B receptor expressed in HEK293 cells assessed as reduction in glutamate induced current at -40 mV holding potential by electrophysiology assay; assay type: cell-based
[9] = Toxicity in Wistar rat assessed as no observed adverse effect level (NOAEL) at 5 mg/kg, ip; assay type: organism-based; conditions: in vivo
in vitro [10] = conditions: human, liver microsomes; remark: listed apart in the source
Description: Metabolic stability in human liver microsomes assessed as intrinsic clearance at 3 uM measured upto 45 min in presence of NADPH regenerating system by LC-MS analysis

[11] = Inhibition of recombinant human GluN1 Y109C /GluN2B receptor expressed in HEK293 cells assessed as reduction in glutamate induced current at -60 mV holding potential by electrophysiology assay; assay type: cell-based
Rattus norvegicus [12] = assay: Antialzheimer activity against scopolamine-induced cognitive impairment in Wistar rat assessed as increase in number of platform crossing at 5 mg/kg, ip measured upto 4 days by morris water maze test; assay type: functional, organism-based; conditions: time <= 4.0 day
Rattus norvegicus [13] = assay: Antialzheimer activity against scopolamine-induced cognitive impairment in Wistar rat assessed as decrease in latency to reach platform at 5 mg/kg, ip measured upto 4 days by morris water maze test; assay type: functional, organism-based; conditions: time <= 4.0 day
[14] = Inhibition of recombinant human GluN1/GluN2B F114A mutant receptor expressed in HEK293 cells assessed as reduction in glutamate induced current at -60 mV holding potential by electrophysiology assay; assay type: cell-based
[15] = Inhibition of recombinant human GluN1 deltaATD/GluN2B receptor expressed in HEK293 cells assessed as reduction in glutamate induced current at -60 mV holding potential by electrophysiology assay; assay type: cell-based
[16] = biological target: T1, Glutamate NMDA receptor; GRIN1/GRIN2B; assay: Inhibition of recombinant wild type human GluN1/GluN2B receptor expressed in HEK293 cells assessed as reduction in glutamate induced current at -40 mV holding potential by electrophysiology assay; assay type: cell-based
[17] = Toxicity in Wistar rat assessed as loss of activity at 10 mg/kg, ip; assay type: organism-based; conditions: in vivo
[18] = Inhibition of recombinant human GluN1 F113A /GluN2B receptor expressed in HEK293 cells assessed as reduction in glutamate induced current at -60 mV holding potential by electrophysiology assay; assay type: cell-based
[19] = Inhibition of recombinant human GluN1 F113A /GluN2B receptor expressed in HEK293 cells assessed as reduction in glutamate induced current at -40 mV holding potential by electrophysiology assay; assay type: cell-based
[20] = Inhibition of recombinant human GluN1/GluN2B F114A mutant receptor expressed in HEK293 cells assessed as reduction in glutamate induced current at -40 mV holding potential by electrophysiology assay; assay type: cell-based
[21] = biological target: T2, Glutamate NMDA receptor; GRIN1/GRIN2A (Homo sapiens, UniProt Q05586+Q12879); assay: Inhibition of recombinant wild type human GluN1/GluN2A receptor expressed in HEK293 cells assessed as reduction in glutamate induced current at -60 mV holding potential by electrophysiology assay; assay type: cell-based
[22] = Inhibition of recombinant human GluN1 deltaATD/GluN2B receptor expressed in HEK293 cells assessed as reduction in glutamate induced current at -40 mV holding potential by electrophysiology assay; assay type: cell-based
[23] = Inhibition of recombinant human GluN1/GluN2B Q110F mutant receptor expressed in HEK293 cells assessed as reduction in glutamate induced current at -40 mV holding potential by electrophysiology assay; assay type: cell-based
[24] = biological target: T1, Glutamate NMDA receptor; GRIN1/GRIN2B; assay: Inhibition of recombinant wild type human GluN1/GluN2B receptor expressed in HEK293 cells assessed as reduction in glutamate induced current at -60 mV holding potential by electrophysiology assay; assay type: cell-based
Rattus norvegicus [25] = assay: Antialzheimer activity against scopolamine-induced cognitive impairment in Wistar rat assessed as decrease in mean distance from platform at 5 mg/kg, ip measured upto 4 days by morris water maze test (reference value: 51.7 +/-1.5 cm); assay type: functional; conditions: time <= 4 day
[26] = Inhibition of recombinant human GluN1/GluN2B Q110F mutant receptor expressed in HEK293 cells assessed as reduction in glutamate induced current at -60 mV holding potential by electrophysiology assay; assay type: cell-based
Rattus norvegicus [27] = assay: Antipsychotic activity in Wistar rat assessed as effect on locomotor activity at 5 mg/kg, ip measured after 10 mins by open field test; assay type: functional, organism-based
Rattus norvegicus [28] = assay: Antipsychotic activity in Wistar rat assessed as effect on pre-pulse inhibition of acoustic startle response at 5 mg/kg, ip measured after 10 mins by pre-pulse inhibition test; assay type: functional, organism-based
[29] = biological target: T2, Glutamate NMDA receptor; GRIN1/GRIN2A; assay: Inhibition of recombinant wild type human GluN1/GluN2A receptor expressed in HEK293 cells assessed as reduction in glutamate induced current at -40 mV holding potential by electrophysiology assay; assay type: cell-based
[30] = Toxicity in Wistar rat assessed as reduction in breathing at 10 mg/kg, ip; assay type: organism-based; conditions: in vivo

Sequence of Cholinesterase (P06276 whole entry): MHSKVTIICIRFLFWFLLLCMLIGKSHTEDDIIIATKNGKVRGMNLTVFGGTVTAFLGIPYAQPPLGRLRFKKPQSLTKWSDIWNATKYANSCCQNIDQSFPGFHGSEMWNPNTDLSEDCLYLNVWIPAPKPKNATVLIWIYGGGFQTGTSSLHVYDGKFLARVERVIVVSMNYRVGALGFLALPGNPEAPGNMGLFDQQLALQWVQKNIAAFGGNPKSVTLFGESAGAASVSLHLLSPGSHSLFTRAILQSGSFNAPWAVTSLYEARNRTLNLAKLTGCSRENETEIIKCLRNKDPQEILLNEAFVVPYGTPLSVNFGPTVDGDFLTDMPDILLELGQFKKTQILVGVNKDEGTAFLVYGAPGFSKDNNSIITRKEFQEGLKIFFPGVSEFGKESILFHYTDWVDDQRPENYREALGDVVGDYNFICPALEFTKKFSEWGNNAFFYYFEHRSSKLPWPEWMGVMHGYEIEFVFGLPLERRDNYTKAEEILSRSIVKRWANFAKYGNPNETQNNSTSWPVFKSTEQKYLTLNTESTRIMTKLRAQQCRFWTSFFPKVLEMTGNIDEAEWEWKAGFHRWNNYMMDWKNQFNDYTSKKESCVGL
Sequence of Acetylcholinesterase (P22303 whole entry): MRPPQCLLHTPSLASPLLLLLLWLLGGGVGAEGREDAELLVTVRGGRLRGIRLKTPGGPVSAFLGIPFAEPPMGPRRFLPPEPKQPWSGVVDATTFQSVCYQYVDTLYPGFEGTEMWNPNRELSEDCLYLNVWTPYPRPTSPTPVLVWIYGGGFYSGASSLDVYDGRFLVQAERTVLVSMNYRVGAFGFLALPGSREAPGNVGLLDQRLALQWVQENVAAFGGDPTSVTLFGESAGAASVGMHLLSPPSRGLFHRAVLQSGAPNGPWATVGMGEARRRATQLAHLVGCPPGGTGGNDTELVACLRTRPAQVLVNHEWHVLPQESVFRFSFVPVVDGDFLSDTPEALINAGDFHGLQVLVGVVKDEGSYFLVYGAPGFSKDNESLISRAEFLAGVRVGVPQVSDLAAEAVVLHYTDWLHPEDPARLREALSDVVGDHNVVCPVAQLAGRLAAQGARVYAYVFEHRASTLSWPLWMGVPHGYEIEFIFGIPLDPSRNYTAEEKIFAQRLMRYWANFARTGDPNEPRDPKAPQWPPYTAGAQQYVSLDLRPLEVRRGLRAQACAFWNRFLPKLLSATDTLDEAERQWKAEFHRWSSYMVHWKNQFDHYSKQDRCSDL
T2 sequence (Q12879 whole entry, other chains not shown): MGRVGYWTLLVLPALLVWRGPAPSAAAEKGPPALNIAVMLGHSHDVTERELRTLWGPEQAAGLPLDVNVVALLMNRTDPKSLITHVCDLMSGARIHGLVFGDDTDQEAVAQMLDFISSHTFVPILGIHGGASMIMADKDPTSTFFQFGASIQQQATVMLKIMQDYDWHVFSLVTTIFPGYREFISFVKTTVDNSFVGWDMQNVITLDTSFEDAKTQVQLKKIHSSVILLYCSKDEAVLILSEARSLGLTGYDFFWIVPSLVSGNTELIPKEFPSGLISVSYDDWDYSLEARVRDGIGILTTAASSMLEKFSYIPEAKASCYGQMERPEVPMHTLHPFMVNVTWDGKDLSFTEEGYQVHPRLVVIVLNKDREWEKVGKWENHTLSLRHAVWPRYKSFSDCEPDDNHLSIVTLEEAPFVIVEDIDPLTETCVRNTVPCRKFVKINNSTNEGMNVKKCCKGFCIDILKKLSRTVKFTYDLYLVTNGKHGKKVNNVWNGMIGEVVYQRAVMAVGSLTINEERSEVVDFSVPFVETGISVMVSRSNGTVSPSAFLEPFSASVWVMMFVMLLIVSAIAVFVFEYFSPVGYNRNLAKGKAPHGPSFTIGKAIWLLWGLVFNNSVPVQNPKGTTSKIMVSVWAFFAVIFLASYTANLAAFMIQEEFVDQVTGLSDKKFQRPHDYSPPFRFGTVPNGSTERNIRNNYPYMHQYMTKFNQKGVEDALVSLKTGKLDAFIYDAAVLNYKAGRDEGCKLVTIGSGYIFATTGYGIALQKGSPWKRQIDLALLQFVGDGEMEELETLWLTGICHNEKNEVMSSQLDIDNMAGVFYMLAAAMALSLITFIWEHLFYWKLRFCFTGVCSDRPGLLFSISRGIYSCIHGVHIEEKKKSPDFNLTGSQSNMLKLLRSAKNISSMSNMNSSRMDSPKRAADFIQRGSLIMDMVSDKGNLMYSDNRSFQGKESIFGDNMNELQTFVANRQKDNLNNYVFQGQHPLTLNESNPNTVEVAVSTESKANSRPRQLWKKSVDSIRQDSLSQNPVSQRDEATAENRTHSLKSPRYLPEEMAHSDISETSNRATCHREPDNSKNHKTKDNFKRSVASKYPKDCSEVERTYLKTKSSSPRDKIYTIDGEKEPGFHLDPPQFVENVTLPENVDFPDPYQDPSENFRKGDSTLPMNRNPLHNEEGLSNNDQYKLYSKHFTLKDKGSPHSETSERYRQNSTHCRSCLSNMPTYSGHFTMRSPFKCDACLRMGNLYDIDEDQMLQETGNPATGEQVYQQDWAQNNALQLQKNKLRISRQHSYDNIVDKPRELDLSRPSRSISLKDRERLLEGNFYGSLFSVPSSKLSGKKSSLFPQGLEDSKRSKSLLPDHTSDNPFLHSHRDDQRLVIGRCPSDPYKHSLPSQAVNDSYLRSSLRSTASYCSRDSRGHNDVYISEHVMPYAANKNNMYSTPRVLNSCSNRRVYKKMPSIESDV

Structure (SMILES): COc1ccc(Oc2ccc3nc4c(c(N)c3c2)CCCCC4)cc1
- pIC50 (Cholinesterase): 5.56
- pIC50 (Acetylcholinesterase): 5.44
- IC50 at 24 h [1]: 28 µM
- inhibition [2]: 29.6%

Structure (SMILES): COc1cccc(Oc2ccc3nc4c(c(N)c3c2)CCCCC4)c1
- pIC50 (Cholinesterase): 5.58
- pIC50 (Acetylcholinesterase): 5.37
- IC50 at 24 h [1]: 21 µM
- inhibition [2]: 7.1%

Structure (SMILES): Cc1ccccc1Oc1ccc2nc3c(c(N)c2c1)CCCCC3
- pIC50 (Cholinesterase): 5.38
- pIC50 (Acetylcholinesterase): 5.24
- IC50 at 24 h [1]: 26 µM
- inhibition [2]: 8.8%

Structure (SMILES): Cc1ccccc1Oc1ccc2nc3c(c(N)c2c1)CCC3.Cl
- pIC50 (Acetylcholinesterase): 4.55
- Activity (Rattus norvegicus [3]): Active
- IC50 at 24 h [1]: 78 µM
- inhibition [2]: 16.6%
- Activity (Rattus norvegicus [4]): 59.5 cm

Structure (SMILES): Cc1cccc(Oc2ccc3nc4c(c(N)c3c2)CCC4)c1
- pIC50 (Cholinesterase): 5.55
- pIC50 (Acetylcholinesterase): 5.28
- IC50 at 24 h [1]: 34 µM
- inhibition [2]: 18.1%

Structure (SMILES): C[C@]12N[C@H](Cc3ccccc31)c1ccccc12
- Activity (Rattus norvegicus [5]): Active
- Activity (Rattus norvegicus [6]): Active

Structure (SMILES): Cc1ccc(Oc2ccc3nc4c(c(N)c3c2)CCCC4)cc1
- pIC50 (Cholinesterase): 5.71
- pIC50 (Acetylcholinesterase): 5.48
- IC50 at 24 h [1]: 20 µM
- inhibition [2]: 18%

Structure (SMILES): COc1cccc(Oc2ccc3nc4c(c(N)c3c2)CCCC4)c1
- pIC50 (Cholinesterase): 5.56
- pIC50 (Acetylcholinesterase): 5.58
- IC50 at 24 h [1]: 27 µM
- inhibition [2]: 14.7%

Structure (SMILES): Cc1cc(C)cc(Oc2ccc3nc4c(c(N)c3c2)CCC4)c1
- pIC50 (Cholinesterase): 5.26
- pIC50 (Acetylcholinesterase): 5.43
- IC50 at 24 h [1]: 39 µM
- inhibition [2]: 9.6%

Structure (SMILES): CC(C)(C)c1ccc(Oc2ccc3nc4c(c(N)c3c2)CCC4)cc1
- pIC50 (Cholinesterase): 5.51
- pIC50 (Acetylcholinesterase): 5.56
- IC50 at 24 h [1]: 11 µM
- inhibition [2]: 6.7%

Structure (SMILES): COc1cccc(Oc2ccc3nc4c(c(N)c3c2)CCC4)c1
- pIC50 (Cholinesterase): 5.10
- pIC50 (Acetylcholinesterase): 5.28
- IC50 at 24 h [1]: 85 µM
- inhibition [2]: 16%

Structure (SMILES): COc1ccccc1Oc1ccc2nc3c(c(N)c2c1)CCCC3.Cl
- half-life at 0.75 h, 3 µM (in vitro [7]): 2.69 h
- pIC50 [8]: 5.08
- Activity [9]: Non-Toxic
- microsomal CLint at 0.75 h, 3 µM (in vitro [10]): 8.61 µL/min/mg
- pIC50 (Cholinesterase): 6.36
- pIC50 [11]: 5.02
- Activity (Rattus norvegicus [12]): inactive
- Activity (Rattus norvegicus [13]): inactive
- pIC50 [14]: 5.03
- pIC50 (Acetylcholinesterase): 6.08
- pIC50 [15]: 4.95
- pIC50 [16]: 5.17
- Activity [17]: Toxic
- pIC50 [18]: 5.77
- pIC50 [19]: 5.68
- pIC50 [20]: 4.50
- pIC50 [21]: 5.00
- pIC50 [22]: 4.33
- pIC50 [23]: 4.99
- pIC50 [24]: 5.44
- IC50 at 24 h [1]: 43 µM
- Activity (Rattus norvegicus [25]): 78.7 cm
- pIC50 [26]: 5.02
- inhibition [2]: 25.7%
- Activity (Rattus norvegicus [27]): inactive
- Activity (Rattus norvegicus [28]): inactive
- pIC50 [29]: 4.36
- Activity [30]: Toxic

Structure (SMILES): Cc1cc(C)cc(Oc2ccc3nc4c(c(N)c3c2)CCCCC4)c1
- pIC50 (Cholinesterase): 5.28
- pIC50 (Acetylcholinesterase): 6.00
- IC50 at 24 h [1]: 30 µM
- inhibition [2]: 7.8%

Structure (SMILES): Nc1c2c(nc3ccc(Oc4ccccc4)cc13)CCCCC2
- pIC50 (Cholinesterase): 5.85
- pIC50 (Acetylcholinesterase): 5.27
- IC50 at 24 h [1]: 38 µM
- inhibition [2]: 34.9%

Structure (SMILES): Nc1c2c(nc3ccc(Oc4ccc(Cl)cc4)cc13)CCCCC2
- pIC50 (Cholinesterase): 5.73
- pIC50 (Acetylcholinesterase): 5.37
- IC50 at 24 h [1]: 90 µM
- inhibition [2]: 12%
